{
  "source": "patent US12569468B2",
  "about": "“Use of palovarotene in treatment against HBV virus” (YANG SHENG TANG COMPANY, LTD., priority 2020, dated 2026)",
  "format_in_all_cases": "cell-based, hepatitis B virus",
  "key": {"[1]": {"test_system": "HBV", "assay": "Inhibitory effect on HBV infection in infection model HepaRG M14A (drug before infection)", "conditions": "1, 5, 25 μM, treatment before infection", "protocol": "HepaRG was a hepatic progenitor cell line with differentiation potential which was isolated from the tumor tissue of a hepatitis C patient. After two weeks of cell plating, the cellular differentiation was induced with 2% DMSO (2 mL of DMSO was added to per 100 mL of cell culture medium) for two weeks. Finally, about 50% of the cells differentiated into hepatocyte-like cells, and the other 50% of the cells differentiated into cholangiocyte-like cells. Among them, hepatocyte-like cells supported HBV infection with an infection efficiency of about 20%. Through genetic modification of HepaRG, the HNF4A and FoxM1 genes were integrated into HepaRG cells, and a HepaRG M14A cell line that could complete differentiation and support HBV infection independent of DMSO was obtained by screening. (For the construction method of this cell model, please refer to: Zhao Jinghua. Development, Optimization and Preliminary Application of in vitro models supporting HBV Infection [D]. Xiamen University, 2016.)\nThis experiment was carried out in a 24-well cell culture plate. […] About 1.5×10^5 HepaRG M14A cells were plated in each well, and 500 μL of medium D was added to each well. After cell plating, medium D was replaced every 2 days. After 13 days of cell plating, medium D was replaced with drug-containing medium D for drug treatment. After 24 hours of drug treatment, the cells were infected with HBV, and the amount of HBV for infection in each well was 1000 MOI. Before infection, an HBV solution was obtained by diluting HBV in medium E, and the infection volume was 250 μL per well. During infection, the cell supernatant was first removed by suction, the HBV solution was added to the cells, then the cells were incubated for 24 hours, and then the supernatant was collected as the sample of Day 0. Then, the cells were washed three times with PBS warmed in bath at 37° C., and fresh drug-containing medium D (500 μL per well) was used for replacement, then the supernatant was collected every 2 days for detection, and fresh drug-containing medium D was used for replacement, until the 8th day, all the supernatant and cells were collected for related detection. The detection items include HBsAg, HBeAg, HBV DNA, HBV cccDNA, and for the detection method, please refer to Example 1."}, "[2]": {"test_system": "HBV", "assay": "HBcAg immunofluorescence detection in infected HepG2-hNTCP 2B1", "conditions": "HepG2-hNTCP 2B1 cells after infection; 5 μM, day 6 to day 12", "protocol": "Southern blot experiment was carried out on a 10 cm^2 culture plate. About 5×10^6 HepG2-hNTCP 2B1 cells were plated in each 10 cm^2 culture plate, and medium B was added. After the cells adhered, medium A was used for replacement to perform the induction with Doxycycline during the whole experiment. HBV infection was performed 4 days after the induction with Doxycycline, and the amount of HBV for infection was 1000 MOI. Before infection, HBV was diluted in medium C to obtain HBV solution, and the infection volume was 5 mL. During infection, the cell supernatant was first removed by suction, the HBV solution was added to the cells, the cells were incubated for 24 hours, then the supernatant was collected as the sample of Day 0. Then the cells were washed three times with PBS, and fresh medium A was used for replacement. After that, the supernatant was collected every two days for detection, fresh medium A was used for replacement. […]\nThe HBcAg immunofluorescence staining involved in this experiment was performed directly on adherent cells. […] Photographing: Photographing was performed with a high-content confocal microscope (PerkinElmer, Operetta CLS), and the mean fluorescence intensity of green fluorescence was analyzed."}, "[3]": {"test_system": "HBV", "assay": "Therapeutic effect on HepG2-hNTCP 2B1 infected by HBV (drug from day 6 after infection)", "conditions": "drug treatment from 6 days after HBV infection to day 12, Palovarotene at high concentrations (p<0.05), ETV 1 μM, vs blank group", "protocol": "This experiment was carried out in a 24-well culture plate. […] About 1.5×10^5 HepG2-hNTCP 2B1 cells were plated in each well, and 500 μL of medium B was added to each well. After the cells adhered, medium A was used for replacement to perform the induction with Doxycycline during the whole experiment.\n4 Days after the induction with Doxycycline, HBV infection was performed, and the amount of HBV in each well was 100 MOI. Before infection, HBV was diluted in medium C to obtain HBV solution, and the infection volume was 250 μL per well. During infection, the cell supernatant was first removed by suction, the HBV solution was added to the cells, and the cells were incubated for 24 hours, then the supernatant was collected as the sample of Day 0. Then the cells were washed three times with PBS, and fresh medium C was used for replacement. After that, the supernatant was collected every two days for detection, fresh medium C was used for replacement. On the 6th day, fresh drug-containing medium A was used for replacement to start drug treatment, then the supernatant was collected every two days for detection, and fresh drug-containing medium A was used for replacement, until the 12th day, all the supernatant and cells were collected for relevant detection. The detection items included HBsAg, HBeAg, HBV DNA, HBV cccDNA, and for the detection method, please refer to Example 1."}},
  "data": [
    {"molecule": "CC1(C)CCC(C)(C)c2cc(Cn3cccn3)c(/C=C/c3ccc(C(=O)O)cc3)cc21", "note": "[Palovarotene]", "values": [
      {"measurement": "level of intracellular HBV DNA", "setting": "[1]; to day 8, p<0.0001", "result": "significantly reduce"},
      {"measurement": "level of intracellular cccDNA", "setting": "[1]; to day 8, p<0.0001", "result": "significantly reduce"},
      {"measurement": "level of HBeAg in cell supernatant", "setting": "[1]; to day 8, p<0.05", "result": "significantly reduce"},
      {"measurement": "level of HBsAg in cell supernatant", "setting": "[1]; to day 8, p<0.05", "result": "significantly reduce"},
      {"measurement": "positive rate of HBcAg (immunofluorescence)", "setting": "[2]", "result": "significantly reduce the positive rate"},
      {"measurement": "HBeAg", "setting": "[3]", "result": "significant inhibitory effect"},
      {"measurement": "level of HBV DNA", "setting": "[3]", "result": "significantly reduce"},
      {"measurement": "level of HBV cccDNA", "setting": "[3]", "result": "significantly reduce"}
    ]}
  ]
}
